The source made the active and inactive calls. The calls are words filed in the database; no cut-off is given here.
How the values were obtained:
Assay type in all cases: cell-based
[1] = molecular target: T1, Atypical chemokine receptor 3 (Homo sapiens, UniProt P25106); assay: Displacement of [125I]SDF-1alpha from ACKR3 (unknown origin) expressed in CHO cells at 30 uM after 1 hr by scintillation counting method
[2] = molecular target: C-X-C chemokine receptor type 4 (Homo sapiens, UniProt P61073); assay: Displacement of [125I]SDF-1alpha from CXCR4 (unknown origin) expressed in HEK293 cells after 1 hr by scintillation counting method
[3] = molecular target: Atypical chemokine receptor 3 (Homo sapiens, UniProt P25106, S198R); assay: Activation of YFP-tagged ACKR3 S198R mutant (unknown origin) expressed in HEK293E cells assessed as induction of Rluc-tagged beta-arrestin-2 recruitment after 30 mins by BRET assay
[4] = molecular target: T1, Atypical chemokine receptor 3; assay: Displacement of [125I]SDF-1alpha from ACKR3 (unknown origin) expressed in CHO cells after 1 hr by scintillation counting method
[5] = molecular target: T1, Atypical chemokine receptor 3; assay: Activation of YFP-tagged ACKR3 (unknown origin) expressed in HEK293E cells assessed as induction of Rluc-tagged beta-arrestin-2 recruitment after 30 mins by BRET assay
[6] = molecular target: Atypical chemokine receptor 3 (Homo sapiens, UniProt P25106, D179N); assay: Activation of YFP-tagged ACKR3 D179N mutant (unknown origin) expressed in HEK293E cells assessed as induction of Rluc-tagged beta-arrestin-2 recruitment after 30 mins by BRET assay
[7] = molecular target: Atypical chemokine receptor 3 (Homo sapiens, UniProt P25106, D275N); assay: Activation of YFP-tagged ACKR3 D275N mutant (unknown origin) expressed in HEK293E cells assessed as induction of Rluc-tagged beta-arrestin-2 recruitment after 30 mins by BRET assay
Sequence of Atypical chemokine receptor 3 (Homo sapiens, UniProt P25106, D275N) (P25106 whole entry D275N): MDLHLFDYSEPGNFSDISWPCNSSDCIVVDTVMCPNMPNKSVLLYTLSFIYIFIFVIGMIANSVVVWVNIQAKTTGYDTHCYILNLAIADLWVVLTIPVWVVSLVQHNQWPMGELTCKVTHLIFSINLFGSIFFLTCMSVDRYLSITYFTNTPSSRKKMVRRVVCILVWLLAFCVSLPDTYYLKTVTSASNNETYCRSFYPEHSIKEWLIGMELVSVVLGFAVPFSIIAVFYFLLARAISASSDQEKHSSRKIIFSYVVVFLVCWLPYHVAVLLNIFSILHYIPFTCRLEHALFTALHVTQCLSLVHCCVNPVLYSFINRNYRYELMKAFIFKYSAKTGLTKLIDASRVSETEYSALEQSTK

Sequence of Atypical chemokine receptor 3 (Homo sapiens, UniProt P25106, D179N) (P25106 whole entry D179N): as the sequence (P25106 whole entry D275N) above, with D179N, N275D counted along it
Sequence of Atypical chemokine receptor 3 (Homo sapiens, UniProt P25106, S198R) (P25106 whole entry S198R): as the sequence (P25106 whole entry D275N) above, with S198R, N275D counted along it
Sequence of C-X-C chemokine receptor type 4 (P61073 whole entry): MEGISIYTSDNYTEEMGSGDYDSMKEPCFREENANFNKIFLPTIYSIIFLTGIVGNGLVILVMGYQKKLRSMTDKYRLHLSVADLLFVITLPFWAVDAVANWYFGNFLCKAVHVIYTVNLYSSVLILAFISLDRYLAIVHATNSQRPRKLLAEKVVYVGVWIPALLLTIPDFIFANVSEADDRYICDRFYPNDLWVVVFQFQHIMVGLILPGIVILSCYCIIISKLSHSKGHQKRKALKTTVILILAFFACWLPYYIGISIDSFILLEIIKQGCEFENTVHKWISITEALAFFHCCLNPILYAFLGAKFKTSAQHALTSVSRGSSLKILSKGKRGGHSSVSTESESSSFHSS
T1 sequence (P25106 whole entry): as the sequence (P25106 whole entry D275N) above, with N275D counted along it

| SMILES | inhibition [1] | IC50 [2] [nM] | IC50 [4] [nM] | also measured |
| --- | --- | --- | --- | --- |
| CN1C(=O)[C@H](CCCNC(=N)N)NC(=O)[C@@H](Cc2ccc(O)cc2)NC(=O)[C@@H]2CCCN2C(=O)[C@H](Cc2ccc3ccccc3c2)NC(=O)[C@@H]1CCCN | – | > 30000 | 1300 | – |
| CN1C(=O)[C@H](CCCCN)NC(=O)[C@@H](Cc2ccc(O)cc2)NC(=O)[C@@H]2CCCN2C(=O)[C@H](Cc2ccc3ccccc3c2)NC(=O)[C@@H]1CCCNC(=N)N | – | > 30000 | 2000 to 24000 | – |
| CN1C(=O)[C@H](CCCNC(=N)N)NC(=O)[C@@H](Cc2ccc(O)cc2)NC(=O)[C@H](Cc2ccc3ccccc3c2)N(C)C(=O)[C@H](Cc2ccc3ccccc3c2)NC(=O)[C@@H]1CCCNC(N)=O | – | > 30000 | 2600 | – |
| CN1C(=O)[C@H](CCC(=O)O)NC(=O)[C@@H](Cc2ccc(O)cc2)NC(=O)[C@@H]2CCCN2C(=O)[C@H](Cc2ccc3ccccc3c2)NC(=O)[C@@H]1CCCNC(=N)N | inactive | > 30000 | – | – |
| CN1C(=O)[C@H](CCCNC(=N)N)NC(=O)[C@@H](Cc2cccc(F)c2)NC(=O)[C@@H]2CCCN2C(=O)[C@H](Cc2ccc3ccccc3c2)NC(=O)[C@@H]1CCCNC(N)=O | – | > 30000 | 1300 | – |

More lines, main results first:

| inhibition [1] | IC50 [2] [nM] | IC50 [4] [nM] | SMILES | also measured |
| --- | --- | --- | --- | --- |
| inactive | > 30000 | – | CN1C(=O)[C@H](CC(N)=O)NC(=O)[C@@H](Cc2ccc(O)cc2)NC(=O)[C@@H]2CCCN2C(=O)[C@H](Cc2ccc3ccccc3c2)NC(=O)[C@@H]1CCCNC(=N)N | – |
| – | > 30000 | 860 | CN1C(=O)[C@H](CCCNC(=N)N)NC(=O)[C@@H](Cc2ccc(O)cc2)NC(=O)[C@@H]2CCCN2C(=O)[C@H](Cc2ccc3ccccc3c2)NC(=O)[C@@H]1CCCNC(=N)N | EC50 ([3]; read-out: EC50): 270 nM; EC50 ([3]; read-out: pEC50 (converted)): 316 nM; EC50 [5]: 91 nM; EC50 ([6]; read-out: EC50): 2200 nM; EC50 ([6]; read-out: pEC50 (converted)): 2510 nM; EC50 ([7]; read-out: EC50): 360 nM |
| inactive | > 30000 | – | CN1C(=O)[C@H](CC(=O)O)NC(=O)[C@@H](Cc2ccc(O)cc2)NC(=O)[C@@H]2CCCN2C(=O)[C@H](Cc2ccc3ccccc3c2)NC(=O)[C@@H]1CCCNC(=N)N | – |
| inactive | > 30000 | – | CN1C(=O)[C@H](CCCNC(=N)N)NC(=O)[C@@H](Cc2ccc(O)cc2)NC(=O)[C@@H]2CCCN2C(=O)[C@H](Cc2ccc3ccccc3c2)NC(=O)[C@@H]1CCC(=O)O | – |
| inactive | > 30000 | – | CN1C(=O)[C@H](CCCNC(=N)N)NC(=O)[C@@H](Cc2ccc(O)cc2)NC(=O)[C@@H]2CCCN2C(=O)[C@H](Cc2ccc3ccccc3c2)NC(=O)[C@@H]1CC(=O)O | – |
| – | > 30000 | 13000 | CN1C(=O)[C@H](CCCNC(=N)N)NC(=O)[C@@H](Cc2ccc(O)cc2)NC(=O)[C@@H]2CCCN2C(=O)[C@H](Cc2ccc3ccccc3c2)NC(=O)[C@@H]1CCCNC(N)=O | – |
| – | 17000 | 170 | CN1C(=O)[C@H](CCCNC(=N)N)NC(=O)[C@@H](Cc2ccc(O)cc2)NC(=O)[C@H](Cc2cccc3ccccc23)N(C)C(=O)[C@H](Cc2ccc3ccccc3c2)NC(=O)[C@@H]1CCCNC(N)=O | EC50 ([3]; read-out: EC50): 1900 nM; EC50 [5]: 490 nM; EC50 ([6]; read-out: EC50): 110 nM; EC50 ([6]; read-out: pEC50 (converted)): 126 nM; EC50 ([7]; read-out: EC50): 5500 nM; EC50 ([7]; read-out: pEC50 (converted)): 6310 nM |

— ChEMBL document CHEMBL4043305, “Structure-Activity Relationship Study of Cyclic Pentapeptide Ligands for Atypical Chemokine Receptor 3 (ACKR3)” (J Med Chem, 2018)
